The target of one data set is Protease (Human immunodeficiency virus 1, UniProt Q9YQ12). Put plainly: Inhibition of HIV1 wild type NL4-3 protease expressed in Escherichia coli Rosetta (DE3) pLysS using Abz-Thr-Ile-Nle-Phe-(pNO2)-Gln-Arg-NH2 as substrate preincubated for 5 to 10 mins followed by substrate addition measured after 1 hr by fluorescence assay.
Data set [1] concerns Human immunodeficiency virus 1. The experiment in a line: Antiviral activity against HIV1 NL4-3 infected in human MT4 cells assessed as reduction in p24 Gag protein production after 7 days by automated chemiluminescent enzyme immunoassay. The class given is functional, organism-based. To be noted: Human immunodeficiency virus 1, NL4-3, MT4, 168 h.
For another data set, the system named is MT4. The experiment in a line: Cytotoxicity against human MT4 cells after 7 days by MTT assay. The class given is cell-based. To be noted: mt4, 168 h.
A short description of data set [2]: Selectivity ratio of CC50 for human MT4 cells to IC50 for HIV1 NL4-3 infected in human MT4 cells. Format: toxicity, cell-based. The note with it: MT4 cells infected with HIV1 NL4-3, read-out: Ratio CC50/IC50.
Data set [3] deals with Human immunodeficiency virus 1. Put plainly: Antiviral activity against lopinavir-resistant HIV1 infected in human MT4 cells assessed as reduction in p24 Gag protein production after 7 days by automated chemiluminescent enzyme immunoassay. The class given is functional, organism-based. To be noted: Human immunodeficiency virus 1, MT4, 168 h.
The subject of data set [4] is Human immunodeficiency virus 1. Put plainly: Antiviral activity against darunavir-resistant HIV1 at passage 21 infected in human MT4 cells assessed as reduction in p24 Gag protein production after 7 days by automated chemiluminescent enzyme immunoassay. Format: functional, organism-based. To be noted: Human immunodeficiency virus 1, MT4, 168 h.
The subject of data set [5] is Human immunodeficiency virus 1. Put plainly: Antiviral activity against darunavir-resistant HIV1 at passage 51 infected in human MT4 cells assessed as reduction in p24 Gag protein production after 7 days by automated chemiluminescent enzyme immunoassay. The note with it: Human immunodeficiency virus 1, MT4, 168 h. Format: functional, organism-based.
The subject of data set [6] is Human immunodeficiency virus 1. Put plainly: Antiviral activity against Atazanavir-resistant HIV1 infected in human MT4 cells assessed as reduction in p24 Gag protein production after 7 days by automated chemiluminescent enzyme immunoassay. The class given is functional, organism-based. To be noted: Human immunodeficiency virus 1, MT4, 168 h.
Data set [7] concerns Human immunodeficiency virus 1. The experiment in a line: Antiviral activity against amprenavir-resistant HIV1 infected in human MT4 cells assessed as reduction in p24 Gag protein production after 7 days by automated chemiluminescent enzyme immunoassay. The class given is functional, organism-based. To be noted: Human immunodeficiency virus 1, MT4, 168 h.
Data set [8] concerns Human immunodeficiency virus 1. Put plainly: Antiviral activity against darunavir-resistant HIV1 at passage 30 infected in human MT4 cells assessed as reduction in p24 Gag protein production after 7 days by automated chemiluminescent enzyme immunoassay. The note with it: Human immunodeficiency virus 1, MT4, 168 h. The class given is functional, organism-based.

Protease, sequence (Q9YQ12 whole entry): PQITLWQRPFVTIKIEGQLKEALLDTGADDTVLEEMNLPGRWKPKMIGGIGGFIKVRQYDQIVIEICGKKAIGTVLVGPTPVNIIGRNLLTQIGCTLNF

On to `COc1ccc(S(=O)(=O)N(CC(C)C)C[C@@H](O)[C@H](Cc2ccccc2)NC(=O)O[C@H]2C[C@H]3OC(=O)N(c4cccc(OC)c4)[C@H]3C2)cc1`, for which, at Protease, the affinity, expressed as Ki, was 92.8 nM. The concentration for half-maximal inhibition (IC50) (in general, the midpoint of a concentration-inhibition curve) in [1] was greater than 1000 nM.

`COc1ccc(S(=O)(=O)N(CC(C)C)C[C@@H](O)[C@H](Cc2ccccc2)NC(=O)O[C@H]2C[C@H]3OC(=O)N(c4ccccc4)[C@H]3C2)cc1`: the Ki (commonly the dissociation constant of the complex between target and ligand, obtained from inhibition or displacement) at Protease was determined as 0.33 nM. In addition, the IC50 in [1] is greater than 1000 nM.

At Protease, `COc1ccc(S(=O)(=O)N(CC(C)C)C[C@@H](O)[C@H](Cc2ccccc2)NC(=O)O[C@H]2C[C@H]3OC(=O)N(c4ccccc4OC)[C@H]3C2)cc1` had an inhibition constant (Ki) of 0.08 nM. Moreover, the concentration for half-maximal inhibition (IC50) in data set [1] was 251 nM.

Take `COc1ccc(S(=O)(=O)N(CC(C)C)C[C@@H](O)[C@H](Cc2ccccc2)NC(=O)O[C@@H]2C[C@@H]3NC(=O)O[C@@H]3C2)cc1`: the CC50 (as a rule, the concentration that lowers cell viability or growth by half) in the data set with MT4 was greater than 100000 nM. At Protease, this molecule showed a Ki of 0.0012 nM. In addition, the selectivity ratio in [2] was greater than 2070. For the same molecule, the concentration for half-maximal inhibition (IC50) in data set [1] came out at 48.3 nM.

As to `COc1ccc(S(=O)(=O)N(CC(C)C)C[C@@H](O)[C@H](Cc2ccccc2)NC(=O)O[C@@H]2C[C@@H]3OC(=O)N(C)[C@@H]3C2)cc1`, in the data set with MT4, the cytotoxic concentration (CC50) was greater than 100000 nM. On Protease, this molecule had a Ki of 0.16 nM. For the same molecule, the selectivity ratio in [2] was greater than 229. Further, the IC50 in data set [1] came out at 436 nM.

`C=C(C)CN1C(=O)O[C@@H]2C[C@H](OC(=O)N[C@@H](Cc3ccccc3)[C@H](O)CN(CC(C)C)S(=O)(=O)c3ccc(OC)cc3)C[C@@H]21` displayed a half-maximal cytotoxic concentration (CC50) in the data set with MT4 greater than 100000 nM. The IC50 is greater than 1000 nM in data set [3]; greater than 1000 nM in [4]; greater than 1000 nM in [5]; 36 nM in data set [6]; 261 nM in data set [7]; 23 to 31 nM in data set [1]. Besides, the IC50 in data set [8] is greater than 1000 nM. The same molecule had a Ki on Protease of 0.04 nM. For the same molecule, in [2], the selectivity ratio was greater than 3230.

In the data set with MT4, `CC(C)CN(C[C@@H](O)[C@H](Cc1ccccc1)NC(=O)O[C@H]1C[C@H]2OC(=O)N(C)[C@H]2C1)S(=O)(=O)c1ccc2nc(NC3CC3)sc2c1` showed a 50% cytotoxic concentration (CC50) of 43000 nM. On Protease, this molecule came in with a Ki of 0.19 nM. In [2], the selectivity ratio stood at 1540. Besides, the half-inhibitory concentration (IC50) in data set [1] came to 28 nM.

Consider `COc1ccc(N2C(=O)O[C@@H]3C[C@H](OC(=O)N[C@@H](Cc4ccccc4)[C@H](O)CN(CC(C)C)S(=O)(=O)c4ccc(OC)cc4)C[C@@H]32)cc1`, for which the Ki on Protease was found to be 0.63 nM. For the same molecule, the IC50 in data set [1] is greater than 1000 nM.

At Protease, `CCCN1C(=O)O[C@@H]2C[C@H](OC(=O)N[C@@H](Cc3ccccc3)[C@H](O)CN(CC(C)C)S(=O)(=O)c3ccc(OC)cc3)C[C@@H]21` yielded an inhibition constant Ki of 0.14 nM. In addition, in data set [1], the IC50 was determined as 447 nM.

For `CC(C)CN(C[C@@H](O)[C@H](Cc1ccccc1)NC(=O)O[C@H]1CO[C@H]2OCC[C@H]21)S(=O)(=O)c1ccc(N)cc1`, the IC50 in data set [5] was greater than 1000 nM; in [1], 3.2 to 3.5 nM.

On Protease, `COCN1C(=O)O[C@@H]2C[C@H](OC(=O)N[C@@H](Cc3ccccc3)[C@H](O)CN(CC(C)C)S(=O)(=O)c3ccc(OC)cc3)C[C@@H]21` yielded a Ki of 0.016 nM. Besides, the IC50 in data set [1] came to 84 nM.

Take `CC(C)(C)NC(=O)[C@@H]1C[C@@H]2CCCC[C@@H]2CN1C[C@@H](O)[C@H](Cc1ccccc1)NC(=O)[C@H](CC(N)=O)NC(=O)c1ccc2ccccc2n1`: in data set [1], the half-inhibitory concentration (IC50) worked out at 21 nM.

For `COc1ccc(S(=O)(=O)N(CC(C)C)C[C@@H](O)[C@H](Cc2ccccc2)NC(=O)O[C@H]2C[C@H]3OC(=O)N(CC(C)C)[C@H]3C2)cc1`, the CC50 in the data set on MT4 is greater than 100000 nM. Further, the IC50 in [3] was 615 nM; in data set [4], greater than 1000 nM; in [5], greater than 1000 nM; in [6], 33 nM; in [7], 309 nM; in data set [8], greater than 1000 nM. In addition, the inhibitory constant (Ki) on Protease amounted to 0.16 nM. Further, in data set [2], the selectivity ratio was greater than 2440.

On Protease, `COc1ccc(S(=O)(=O)N(CC(C)C)C[C@@H](O)[C@H](Cc2ccccc2)NC(=O)O[C@@H]2C[C@@H]3OC(=O)N[C@@H]3C2)cc1` registered a Ki of 1.33 nM. Moreover, the IC50 in [1] is greater than 1000 nM.

Consider `CC(C)CN(C[C@@H](O)[C@H](Cc1ccccc1)NC(=O)O[C@H]1CCOC1)S(=O)(=O)c1ccc(N)cc1`, for which the IC50 is greater than 1000 nM in data set [3]; greater than 1000 nM in data set [4]; greater than 1000 nM in [5]; greater than 1000 nM in data set [6]; greater than 1000 nM in data set [7]; 431 nM in data set [1]. Further, the IC50 in data set [8] is greater than 1000 nM.

At Protease, `C=CCN1C(=O)O[C@@H]2C[C@H](OC(=O)N[C@@H](Cc3ccccc3)[C@H](O)CN(CC(C)C)S(=O)(=O)c3ccc(OC)cc3)C[C@@H]21` displayed a Ki of 0.016 nM. For the same molecule, the IC50 in [1] was 369 nM.

Take `Cc1cccc(C)c1OCC(=O)N[C@@H](Cc1ccccc1)[C@@H](O)C[C@H](Cc1ccccc1)NC(=O)[C@H](C(C)C)N1CCCNC1=O` [LOPINAVIR]: the IC50 in data set [3] was greater than 1000 nM; in [4], greater than 1000 nM; in data set [5] it was greater than 1000 nM; in data set [6] it was 311 nM; in data set [7], 218 nM; in [1], 6 nM. Also, the 50% inhibitory concentration (IC50) in data set [8] is greater than 1000 nM.

For the molecule `COC(=O)N[C@H](C(=O)N[C@@H](Cc1ccccc1)[C@@H](O)CN(Cc1ccc(-c2ccccn2)cc1)NC(=O)[C@@H](NC(=O)OC)C(C)(C)C)C(C)(C)C` [ATAZANAVIR], the IC50 was 293 nM in data set [3]; greater than 1000 nM in data set [4]; greater than 1000 nM in data set [5]; greater than 1000 nM in data set [6]; 2 nM in data set [7]; 0.89 nM in [1]. Moreover, in [8], the IC50 was greater than 1000 nM.

Regarding `COc1ccc(S(=O)(=O)N(CC(C)C)C[C@@H](O)[C@H](Cc2ccccc2)NC(=O)O[C@H]2C[C@H]3OC(=O)N(C)[C@H]3C2)cc1`, on Protease, the Ki was determined as 0.03 nM. Moreover, the selectivity ratio in data set [2] was greater than 2780. Besides, the IC50 in [1] amounted to 36 nM.
